# Measurements from paper PMC11992225, “Antibacterial compounds against non-growing and intracellular bacteria” (npj Antimicrobials and Resistance, 2025).
# Like-named read-outs stand apart in the source and are kept apart here.
# Legend:
# E. coli CFT073 (UPEC) = experiment: MIC, standard microdilution assay, growing UPEC; type: cell-based, Escherichia coli; conditions: E. coli; for MIC (μM) CA-MHB +PAβN: CA-MHB with 10 μg/ml efflux pump inhibitor PaβN
# Protocol: (§1) Minimal inhibitory concentrations (MICs) were determined using a standard microdilution assay protocol. CA-MHB medium buffered with 40 mM HEPES (pH 7.4) was used to determine the MICs for UPEC, P. aeruginosa, and S. aureus. […] MICs for UPEC were also determined in LPM buffered with 30 mM MES (pH 5.5). For S. flexneri, MICs were determined in tryptic soy broth (TSB). The assay was performed in triplicates.
# S. flexneri 5a M90T = experiment: MIC in tryptic soy broth, S. flexneri; type: cell-based, Shigella flexneri; conditions: Shigella flexneri, 5AM90T, read-out: MIC (μM) TSB
# Protocol: as §1
# P. aeruginosa DSM1117 = experiment: MIC, standard microdilution assay, growing P. aeruginosa; type: cell-based, Pseudomonas aeruginosa; conditions: Pseudomonas aeruginosa, DSM1117; P. aeruginosa; CA-MHB pH 7.4; read-out: MIC (μM) CA-MHB
# Protocol: as §1
# non-growing UPEC CFT073 = experiment: Dilution-regrowth assay (screen, hit validation, dose-response) on stationary-phase UPEC; type: cell-based, Escherichia coli; conditions: at 0.5 µM
# Protocol: The cultures were incubated for 24 h in non-baffled Erlenmeyer flasks at 37 °C with shaking at 200 rpm.
# The high-throughput screening (HTS) procedure was based on the protocol by Hazan and colleagues[15] and conducted at the Chemical Biology Consortium Sweden (CBCS) screening facility. […] Each plate included eight wells with 200 nl of 10 mM gatifloxacin, finafloxacin, and kanamycin solutions, along with 8-wells containing 200 nl of DMSO as controls. After 24 h incubation,100 μl of the culture was dispensed into each well of the 384-well plates for screening at a final concentration of 20 μM. The plates were sealed with parafilm and incubated at 37 °C for 24 h in closed humidified boxes, with wet paper towels added to prevent evaporation. […] The plates were incubated at 37 °C for 6 h in humidified boxes, then OD600 was measured using a microplate reader.
# For hit validation, bacteria were cultivated, and the dilution-regrowth assay was conducted following the same protocol used in the primary screen. Hit compounds were dispensed into 384-well plates using the Echo® (Labcyte) system, with 200, 100, or 50 nl of a 10 mM solution in DMSO added per well, yielding final screening concentrations of 20, 10, and 5 μM, respectively. OD600 values of regrowing samples were normalized to the mean OD600 of the drug-free control. The testing was conducted in two replicates.
# For UPEC, dose–response analysis was conducted at the CBCS screening facility. Bacteria were cultivated, and the dilution-regrowth assay was performed according to the HTS protocol. Compounds were dispensed into 384-well plates using the Echo® (Labcyte) system, and regrowth was assessed by measuring OD600 after 6 h of incubation at 37 °C in humidified boxes. Three biological replicates were performed.
# (§2) Statistical significance of the drug effects was assessed using a one-way ANOVA followed by Dunnett’s test, comparing each treatment to the drug-free control. Statistical significance of the differences in chemical characteristics between the hit compounds and the Prestwick library was assessed using a Mann–Whitney test. Statistical significance was set at P ≤ 0.05. A five-parameter logistic equation was used for asymmetric sigmoidal curve fitting and for EC50 and IC50 determination. The Venn diagram in Fig. 1F was prepared using BioVenn web application. Characteristics of the chemical and physical properties of Prestwick library compounds were obtained from Supplementary Table S1 from reference. Characteristics of the hit compounds not included in the Prestwick library were retrieved from the PubChem database.
# [1] = tested on: intracellular S. flexneri 5a M90T in TC7 cells; experiment: microbe, parasite or virus in culture; type: cell-based, Shigella flexneri; conditions: for IC50: Shigella flexneri, TC7, 14 h; for Fluorescence intensity (RFU), Mean, 0.0625 x MIC / Fluorescence intensity (RFU), Mean, 0.125 x MIC / Fluorescence intensity (RFU), Mean, 0.25 x MIC / Fluorescence intensity (RFU), Mean, 0.5 x MIC / Fluorescence intensity (RFU), Mean, 2 x MIC / Fluorescence intensity (RFU), Mean, MIC: TC7 cells infected with GFP-expressing S. flexneri, 14 h treatment
# Source text: Nonproliferating bacterial pathogens frequently inhabit intracellular environments, but establishing relevant infection models for high-throughput testing is challenging. Therefore, we firstly tested ability of the hit compounds to cross the eukaryotic cytoplasmic membrane barrier and inhibit growth of S. flexneri within the cytoplasm of the TC7 human colon adenocarcinoma cell line[59]. To this end, we developed a new, fluorescence-based method that enables real-time monitoring of growth of intracellular Shigella. We used S. flexneri 5a M90T strain producing the AfaE adhesin that enhances bacterial adhesion to epithelial cells and allows synchronization of invasion. The strain was further modified to constitutively express super-folder GFP (sfGFP), which enables monitoring bacterial growth by fluorescence measurement. The epithelial cells were grown to confluence and infected with bacteria at an MOI (multiplicity of infection) of 50. […] Following bacterial adhesion and invasion, the cells were incubated with varying concentrations of the hit compounds and intracellular bacterial growth was tracked by measuring green fluorescence.
# The cells were split using trypsin, seeded in 96-well plates for infection, and grown to confluence, corresponding to approximately 40,000 cells per well.
# A single colony of S. flexneri was inoculated into TSB supplemented with 50 μg/ml spectinomycin and incubated overnight at 37°C with agitation. The overnight culture was diluted 1:200 in fresh TSB, and the bacteria were grown at 37 °C until the OD600 reached 0.3–0.4, corresponding to approximately 2 × 10^7 CFU/ml. Bacteria were pelleted by centrifugation, washed twice with sterile PBS, and resuspended in infection solution (serum-free DMEM supplemented with 20 mM HEPES, pH 7.4). Just prior to infection, the medium was withdrawn, and the cells were washed twice with sterile PBS. The bacterial inoculum (MOI 50, 2 × 10^7 CFU/ml) was added to all wells except the no-infection control. The plates were incubated at room temperature for 15 min to allow bacterial adhesion, followed by a 1 h incubation at 37 °C with 5% CO2 to facilitate bacterial invasion.
# Twofold serial dilutions of the drugs were prepared in infection solution containing 50 μg/ml gentamicin in a 96-well plate. After the invasion period, the bacterial inoculum was removed, and the serial dilutions of the drugs were added to the wells, except for the no-drug control. […] […] The experiments were performed in triplicates on separate days.
# as §2
# S. aureus DSM2569 = experiment: MIC, standard microdilution assay, growing S. aureus; type: cell-based, Staphylococcus aureus; conditions: Staphylococcus aureus, DSM2569; S. aureus; CA-MHB pH 7.4; read-out: MIC (μM) CA-MHB
# Protocol: as §1
# [2] = tested on: non-growing S. aureus DSM2569; experiment: Dose-dependent killing analysis (CFU spot-plating) of stationary-phase S. aureus;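 also: drug concentration in µM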; type: cell-based, Staphylococcus aureus; conditions: S. aureus, vs 9,097 before treatment
# Protocol: To determine the spectrum of activity of the compounds that were effective against non-growing UPEC, we further assessed their efficacy against the well-characterized Gram-negative and Gram-positive reference strains P. aeruginosa DSM1117 and S. aureus DSM2569, respectively. The cultures were grown and treated for 24 h in 1:4 CA-MHB (pH 7.4). […].
# For survival analysis, bacteria were cultivated as described for the dose–response dilution-regrowth assay. Assays with UPEC were conducted at the CBCS screening facility using 96-well plates with a 200 μl sample volume, and compounds were dispensed using the Echo® (Labcyte) system. P. aeruginosa and S. aureus samples were treated according to the protocol used for the dilution-regrowth experiments. Treated samples were serially diluted 10-fold in PBS, and 10 μl drops were spot-plated onto rectangular LB agar plates using either a Beckman NXP robot (for UPEC) or an Integra VIAFLO96 electronic pipette (for P. aeruginosa and S. aureus). The LB agar plates were incubated overnight at 37 °C and scanned. Colonies were counted at the spots of the lowest dilution where individual colonies could be accurately distinguished. Each colony was manually marked on a separate image layer using the GNU Image Manipulation Program, and counted using NIST’s Integrated Colony Enumerator (NICE 1.4) software. The experiments were performed in three biological replicates.
# [3] = Escherichia coli, pH 7.4, 1:4 diluted CA-MHB, read-out: MIC (μM) 1:4 CA-MHB
# [4] = Escherichia coli, pH 7.4, CA-MHB, read-out: MIC (μM) CA-MHB
SMILES,MIC (μM) CA-MHB +PAβN (E. coli CFT073 (UPEC); pH 7.4) [µM],MIC (E. coli CFT073 (UPEC); [3]) [µM],MIC (E. coli CFT073 (UPEC); [4]) [µM],MIC (S. flexneri 5a M90T) [µM],MIC (P. aeruginosa DSM1117) [µM],IC50 [1] [µM],"Fluorescence intensity (RFU), Mean, 0.0625 x MIC [1] [RFU]","Fluorescence intensity (RFU), Mean, 0.125 x MIC [1] [RFU]","Fluorescence intensity (RFU), Mean, 0.25 x MIC [1] [RFU]","Fluorescence intensity (RFU), Mean, 0.5 x MIC [1] [RFU]","Fluorescence intensity (RFU), Mean, 2 x MIC [1] [RFU]","Fluorescence intensity (RFU), Mean, MIC [1] [RFU]",MIC (S. aureus DSM2569) [µM],other results
CCC(=O)O[C@@H]1CC(=O)O[C@H](C)C/C=C/C=C/[C@H](O)[C@H](C)C[C@H](CC=O)[C@H](O[C@@H]2O[C@H](C)[C@@H](O[C@H]3C[C@@](C)(O)[C@@H](OC(=O)CC)[C@H](C)O3)[C@H](N(C)C)[C@H]2O)[C@H]1OC [Midecamycin],160,160,> 160,128,> 160,91,9401.53,9631.81,8761.75,6972.36,1708.61,3717.14,2,"MIC (E. coli CFT073 (UPEC); pH 7.4, CA-MHB, read-out: MIC (μM) CA-MHB): >160 µM; MIC (E. coli CFT073 (UPEC); Escherichia coli, LPM pH 5.5, read-out: MIC): 160 µM; UPEC regrowth delay (non-growing UPEC CFT073): effectively delays UPEC regrowth"
CO[C@@H]1[C@@H](O[C@@H]2O[C@H](C)[C@@H](O[C@H]3C[C@@](C)(O)[C@@H](OC(=O)CC(C)C)[C@H](C)O3)[C@H](N(C)C)[C@H]2O)[C@@H](CC=O)C[C@@H](C)[C@@H](O)/C=C/C=C/C[C@@H](C)OC(=O)C[C@H]1OC(C)=O [Josamycin],40,80,80,128,> 160,34.3,8835.42,7817.11,5830.67,2645.69,1478.33,1710.25,2,average Δlog10(CFU/ml) (killing) ([2]; drug conc. 0.1): 0.030 log10(CFU/ml); average Δlog10(CFU/ml) (killing) ([2]; drug conc. 0.5): 0.110 log10(CFU/ml); average Δlog10(CFU/ml) (killing) ([2]; drug conc. 2.5): 0.195 log10(CFU/ml); average Δlog10(CFU/ml) (killing) ([2]; drug conc. 10): 0.084 log10(CFU/ml); MIC:IC50 ratio ([1]; S. flexneri MIC in TSB versus intracellular IC50): > 2
